Holding throughout (type): cell-based
For test [1], the system named is mature adipocytes (3T3-L1 cells). Put plainly: Enhancing action on glucose uptake (2-deoxyglucose) into mature adipocytes. The following applies: Mus musculus, 3T3-L1, X=(S−N)/(P−N) of 2-deoxyglucose uptake, P=insulin 1 μg/mL, read-out: Enhancing Action on Glucose Uptake.
The next test relates to 3T3-L1 cells. As to the kind of experiment: Induction of adipocyte differentiation (amount of triglyceride biosynthesis). To be noted: Mus musculus, 3T3-L1, X=(S−N)/(P−N) of amount of triglyceride, P=insulin positive control, read-out: Action for Induction of Differentiation. Put shortly: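 3T3-L1 cells were grown 7 days in DMEM/10% FBS/200 μM ascorbic acid, then given test compound with 0.25 μM dexamethasone for 45 h, then compound alone for 7 days, re-dosed at medium changes. Hexane:isopropanol-extracted triglyceride was measured in duplicate; X=(S−N)/(P−N) versus DMSO (N) and insulin (P), ranked +++ to +/−.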

The target in test [2] is T1, fusion protein of an yeast GAL4 DNA-binding domain and a human PPARγ ligand-binding site (Homo sapiens, UniProt P37231).
T1 construct: expressed in transfected cells; host or cells: CV-1 cells
T1 sequence (P37231 204-505): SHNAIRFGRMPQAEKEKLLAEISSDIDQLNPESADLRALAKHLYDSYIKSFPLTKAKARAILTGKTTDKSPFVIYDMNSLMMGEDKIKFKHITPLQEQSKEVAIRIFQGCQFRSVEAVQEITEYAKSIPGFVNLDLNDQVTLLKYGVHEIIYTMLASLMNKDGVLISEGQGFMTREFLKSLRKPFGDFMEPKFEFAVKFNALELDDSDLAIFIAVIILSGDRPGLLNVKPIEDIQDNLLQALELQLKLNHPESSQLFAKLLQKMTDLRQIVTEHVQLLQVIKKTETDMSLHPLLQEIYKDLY
Put plainly: PPARγ activation reporter assay in CV-1 cells. To be noted: test compound 10 μM, pFA-CMV (PPARγ), 24 hours. The method, then: The activation ability for PPARγ was determined by a reporter assay using a fusion protein of an yeast GAL4 DNA-binding domain and a human PPARγ ligand-binding site.
A plasmid (pGAL4/GL3-Promoter) was prepared by repeating five times insertion of a binding site (UASg) of GAL4 into a multicloning site of a pGL3-Promoter vector (Promega). In addition, a ligand-binding site (amino acid sequence 204 to 505) of the PPARγ gene was cloned from a human liver cDNA library (manufactured by TAKARA BIO INC.) by a polymerase chain reaction, and the ligand-binding site was inserted into a multicloning site of a pFA-CMV plasmid vector ([…]) to give pFA-CMV (PPARγ).
Escherichia coli JM-109 strain was transformed with each of the two kinds of the plasmids obtained by the above-mentioned procedures, and pFA-CMV and pRL-TK (Promega) according to a conventional method. Each of the Escherichia coli cells was cultured with shaking at 37° C. for 18 hours in an LB medium containing 100 μg/mL ampicillin. Thereafter, the plasmids of each were purified according to the procedure manual of QIAfilter Plasmid midi Kit (QIAGEN).
CV-1 cells were seeded in a 24-well plate so as to have a density of 4×10^4 cells per well. Thereafter, the cells were cultured in a Dulbecco's modified Eagle's medium (manufactured by Sigma, D5796) containing 10% fetal bovine serine (manufactured by Bio Whittaker) for 24 hours under the conditions of 37° C. and 5% CO2. Thereafter, in accordance with the procedure manual of LipofectAmine 2000 (Invitrogen), the gene transfer was carried out into the CV-1 cells with 200 ng of pFA-CMV (PPARγ) or pFA-CMV, 400 ng of pGAL4/GL3-promoter, and 200 ng of pRL-TK per well, and thereafter the cells were cultured for 24 hours under the conditions of 37° C. and 5% CO2. Thereafter, the medium was exchanged with a Dulbecco's modified Eagle's medium to which a test compound dissolved in dimethyl sulfoxide was previously added so as to have a final concentration of 10 μM. Thereafter, the cells were cultured for additional 24 hours. In addition, there were set a group with addition of dimethyl sulfoxide in place of a test compound as a negative control, and a group with addition of troglytazone (manufactured by Calbiochem) so as to have a final concentration of 3 μM as a positive control. The cells were washed with a phosphate buffered saline, and 5× PassiveLysisBuffer (Promega) which was previously diluted in 5-folds with distilled water was added thereto in an amount of 100 μL per well. The mixture was shaken at room temperature for 15 minutes to lyse cells. Twenty microliters of this lysed solution was applied in accordance with the procedure manual of Dual Luciferase Assay System (Promega), and a fluorescent luciferase emission intensity and a Renilla mullerei luciferase emission intensity were measured using Mithras-LB940 (BERTHOLD TECHNOLOGIES GmbH). The enhancing action for transcriptional activation of each test compound was shown as a relative value obtained by calculating a ratio of the fluorescent luciferase emission intensity to the Renilla mullerei luciferase emission intensity, wherein the value of the group with addition of the negative control is defined as 1.
In general terms: A reporter such as luciferase makes a cellular process visible.

Each structure is given as a SMILES string.

Consider 13 compounds from patent US20070092551A1, “Therapeutic agent” (TAKARA BIO INC., priority 2003, published 2007).

For the compound `CC(C)=CCc1c(O)ccc(C(=O)/C=C/c2ccc(Cl)cc2)c1O` [Compound (C075), 4-chloro-2′,4′-dihydroxy-3′-prenylchalcone], in test [1], the activation at 10 µM fell in the range of 15 to 30% and the activation at 30 µM lay within 30 to 60%. In the test on 3T3-L1 cells, the activation at 3 µM was in the range of 15 to 30% and the activation at 10 µM was 30 to 60%.
For `COc1ccc(C(=O)/C=C/c2cccc([N+](=O)[O-])c2)c(O)c1CC=C(C)C` [Compound (C076), 3-nitro-2′-hydroxy-3′-prenyl-4′-methoxychalcone], in test [1], the activation at 3 µM is 15 to 30%, the activation at 10 µM lay in the range of 30 to 60% and the activation at 30 µM is greater than 100%. In addition, in the test on 3T3-L1 cells, the activation at 1 µM was 60 to 100%, the activation at 3 µM is greater than 100% and the activation at 10 µM was greater than 100%.
`COc1ccc(C(=O)/C=C/c2ccc(O)cc2)c(OCc2ccccc2)c1CC=C(C)C` [Compound (C077), 4-hydroxy-2′-benzyloxy-3′-prenyl-4′-methoxychalcone]: in test [1], the activation at 10 µM was in the range of 30 to 60% and the activation at 30 µM was 30 to 60%. The activation at 3 µM in the test with 3T3-L1 cells is 30 to 60%.
`COc1ccc(C(=O)/C=C/c2ccc(OC(C)=O)cc2)c(O)c1CC=C(C)C` [Compound (C078), 4-acetoxy-2′-hydroxy-3′-prenyl-4′-methoxychalcone]: the activation at 10 µM in test [1] lay in the range of 15 to 30%; in the test on 3T3-L1 cells, 30 to 60%. Moreover, the activation at 30 µM (in test [1]; with 3T3-L1 cells (30 μM)) was greater than 100% in each case.
In the case of `COc1ccc(C(=O)/C=C/c2ccc(Cl)cc2)c(OC(C)=O)c1CC=C(C)C` [Compound (C079), 4-chloro-2′-acetoxy-3′-prenyl-4′-methoxychalcone], in test [1], the activation at 3 µM is greater than 100%, the activation at 10 µM was in the range of 60 to 100% and the activation at 30 µM was greater than 100%. For the same compound, in the test on 3T3-L1 cells, the activation at 3 µM fell in the range of 60 to 100% and the activation at 10 µM is greater than 100%.
As for `COc1ccc(C(=O)/C=C/c2ccc(Cl)cc2)c(OC(C)=O)c1C/C=C(\C)CCC=C(C)C` [Compound (C080), 4-chloro-2′-acetoxy-3′-geranyl-4′-methoxychalcone], in test [1], the activation at 10 µM was 30 to 60% and the activation at 30 µM lay in the range of 60 to 100%. In the test with 3T3-L1 cells, the activation at 1 µM lay in the range of 60 to 100%, the activation at 3 µM is greater than 100% and the activation at 10 µM was greater than 100%.
In the case of `COc1ccc(C(=O)/C=C/c2ccco2)c(O)c1CC=C(C)C` [Compound (FUR-1), 3-(2-furyl)-1-(2-hydroxy-3-prenyl-4-methoxyphenyl)-2-propen-1-one], in test [1], the activation at 10 µM fell in the range of 15 to 30% and the activation at 30 µM lay within 60 to 100%. Also, in the test with 3T3-L1 cells, the activation at 1 µM is 15 to 30%, the activation at 3 µM is 30 to 60% and the activation at 10 µM is greater than 100%.
As for `CC(C)=CCc1c(O)ccc(C(=O)/C=C/c2ccc(O)cc2)c1O` [Isobavachalcone], in test [1], the activation at 3 µM is 15 to 30%, the activation at 10 µM is 60 to 100% and the activation at 30 µM was greater than 100%. For the same compound, in the test with 3T3-L1 cells, the activation at 3 µM was in the range of 30 to 60% and the activation at 10 µM was 60 to 100%.
On to `CC(C)=CCCC(C)(O)C1Cc2c(ccc(C(=O)/C=C/c3ccc(O)cc3)c2O)O1` (centres unmarked) [TB3, 1-[2,3-dihydro-4-hydroxy-2-(1-hydroxy-1,5-dimethyl-4-hexenyl)-benzofuran-5-yl]-3-(4-hydroxyphenyl)-2-propen-1-one], for which, in test [1], the activation at 3 µM lay in the range of 30 to 60% and the activation at 10 µM is greater than 100%. In the test with 3T3-L1 cells, the activation at 3 µM was greater than 100% and the activation at 10 µM is greater than 100%.
As for `CCOC(C)(C)C(O)CC/C(C)=C/Cc1c(O)ccc(C(=O)/C=C/c2ccc(O)cc2)c1O` (centres unmarked) [TB6, 1-[3-(7-ethoxy-6-hydroxy-3,7-dimethyl-2-octenyl)-2,4-dihydroxyphenyl]-3-(4-hydroxyphenyl)-2-propen-1-one], in test [1], the activation at 30 µM is 30 to 60%. In the test with 3T3-L1 cells, the activation at 3 µM was 15 to 30% and the activation at 10 µM is greater than 100%.
`COc1ccc(C(=O)/C=C/c2ccc(O)cc2)c(O)c1C/C=C(\C)C/C=C/C(C)(C)OO` [TB8, 1-[2-hydroxy-3-(7-hydroperoxy-3,7-dimethyl-2,5-octadienyl)-4-methoxyphenyl]-3-(4-hydroxyphenyl)-2-propen-1-one]: in test [1], the activation at 3 µM fell in the range of 15 to 30%, the activation at 10 µM is 60 to 100% and the activation at 30 µM is 60 to 100%. Moreover, in the test on 3T3-L1 cells, the activation at 3 µM lay within 30 to 60% and the activation at 10 µM was greater than 100%.
Take `C=C(C)C(CC/C(C)=C/Cc1c(OC)ccc(C(=O)/C=C/c2ccc(O)cc2)c1O)OO` (centres unmarked) [TB9, 1-[2-hydroxy-3-(6-hydroperoxy-3,7-dimethyl-2,7-octadienyl)-4-methoxyphenyl]-3-(4-hydroxyphenyl)-2-propen-1-one]: in test [1], the activation at 3 µM is 15 to 30%, the activation at 10 µM was in the range of 15 to 30% and the activation at 30 µM fell in the range of 30 to 60%. The activation at 10 µM with 3T3-L1 cells was greater than 100%.
Turning to `COc1cc(O)c(CC=C(C)C)c(O)c1C(=O)/C=C/c1ccc(O)cc1` [Xanthohumol, 4,2′,4′-trihydroxy-3′-prenyl-6′-methoxychalcone], the “enhancing action for transcriptional activation (PPARγ)” value in test [2] was “no enhancing action for transcriptional activation was found”. The activation at 4 µM in the test with 3T3-L1 cells (4 μM) lay within 15 to 30%. In the test with 3T3-L1 cells (13 μM), the activation at 13 µM lay within 30 to 60%.
